The text below walks through data of patent US20180319810A1, “SUBSTITUTED BRIDGED UREA ANALOGS AS SIRTUIN MODULATORS” (GlaxoSmithKline Intellectual Property (No.2) Limited, priority 2014, published 2018).

The target in the test is T1, SIRT1 (Homo sapiens, UniProt Q96EB6).
T1 sequence (Q96EB6 1-747): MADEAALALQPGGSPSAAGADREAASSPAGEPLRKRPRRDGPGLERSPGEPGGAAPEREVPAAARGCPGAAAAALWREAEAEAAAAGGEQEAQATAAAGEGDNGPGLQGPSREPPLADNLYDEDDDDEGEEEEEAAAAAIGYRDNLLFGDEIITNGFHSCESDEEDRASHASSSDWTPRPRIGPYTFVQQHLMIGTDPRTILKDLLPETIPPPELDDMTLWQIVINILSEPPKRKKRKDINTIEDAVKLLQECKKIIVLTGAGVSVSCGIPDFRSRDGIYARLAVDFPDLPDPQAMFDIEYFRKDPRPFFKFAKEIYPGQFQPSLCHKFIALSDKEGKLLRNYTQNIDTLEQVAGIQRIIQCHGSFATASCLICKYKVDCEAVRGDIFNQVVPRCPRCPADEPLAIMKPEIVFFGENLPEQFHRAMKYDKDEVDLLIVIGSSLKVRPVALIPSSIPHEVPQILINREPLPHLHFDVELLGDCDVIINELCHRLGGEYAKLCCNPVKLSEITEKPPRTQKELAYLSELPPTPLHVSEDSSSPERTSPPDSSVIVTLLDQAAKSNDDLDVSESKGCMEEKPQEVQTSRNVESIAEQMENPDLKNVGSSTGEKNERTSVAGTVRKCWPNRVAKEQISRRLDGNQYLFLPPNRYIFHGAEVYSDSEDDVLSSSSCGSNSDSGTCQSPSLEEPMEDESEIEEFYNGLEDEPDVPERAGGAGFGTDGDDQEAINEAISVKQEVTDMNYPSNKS
Put plainly: Trp mass spectrometry assay of SIRT1 activation. Format: biochemical. The settings on record: Trp peptide Ac-R-H-K-K(Ac)-W-NH2 0.5 μM, 120 μM βNAD+, 10 nM SIRT1, 25 min, 25° C. The source says:
Mass spectrometry based assays were used to identify modulators of SIRT1 activity. […] The peptide was labeled with the fluorophore 5TMR (excitation 540 nm/emission 580 nm) at the C-terminus. The sequence of the peptide substrate was based on p53 with several modifications. In addition, the methionine residue naturally present in the sequence was replaced with the norleucine because the methionine may be susceptible to oxidation during synthesis and purification.
The Trp mass spectrometry assay was conducted as follows. […] The SIRT1 protein was obtained by cloning the SirT1 gene into a T7-promoter containing vector, which was then expressed in BL21(DE3) bacterial cells and purified as described in further detail below. Test compound was added at varying concentrations to this reaction mixture and the resulting reactions were monitored. After the 25 minute incubation with SIRT1, 10 μL of 10% formic acid was added to stop the reaction. The resulting reactions were sealed and frozen for later mass spec analysis. The relative SIRT1 activity was then determined by measuring the amount of O-acetyl-ADP-ribose (OAADPR) formed (or, alternatively, the amount of deacetylated Trp peptide generated) by the NAD-dependent sirtuin deacetylation reaction in the presence of varying concentrations of the test compound versus control reactions lacking the test compound.
The degree to which the test agent activated deacetylation by SIRT1 was expressed as EC1.5 (i.e., the concentration of compound required to increase SIRT1 activity by 50% over the control lacking test compound), and Percent Maximum Activation (i.e., the maximum activity relative to control (100%) obtained for the test compound).
This time point was the same as that used for test compounds and, within the linear range, the endpoint represents a change in velocity.
For the above assay, SIRT1 protein was expressed and purified as follows. The SirT1 gene was cloned into a T7-promoter containing vector and transformed into BL21(DE3). The protein was expressed by induction with 1 mM IPTG as an N-terminal His-tag fusion protein at 18° C. overnight and harvested at 30,000×g. Cells were lysed with lysozyme in lysis buffer (50 mM Tris-HCl, 2 mM Tris[2-carboxyethyl]phosphine (TCEP), 10 μM ZnCl2, 200 mM NaCl) and further treated with sonication for 10 min for complete lysis. The protein was purified over a Ni-NTA column (Amersham) and fractions containing pure protein were pooled, concentrated and run over a sizing column (Sephadex S200 26/60 global). The peak containing soluble protein was collected and run on an Ion-exchange column (MonoQ). Gradient elution (200 mM-500 mM NaCl) yielded pure protein. This protein was concentrated and dialyzed against dialysis buffer (20 mM Tris-HCl, 2 mM TCEP) overnight. The protein was aliquoted and frozen at −80° C. until further use.
“NT” means not tested; “ND” means not determinable.

The structures appear in SMILES notation.

`O=C(Nc1cc(OC[C@H](O)CO)ncn1)N1c2nc(-c3cccc(C(F)(F)F)c3)ncc2N2CC[C@H]1C2` [Example 16, (8S)—N-(6-((R)-2,3-dihydroxypropoxy)pyrimidin-4-yl)-2-(3-(trifluoromethyl)phenyl)-7,8-dihydro-5,8-methanopyrimido[4,5-b][1,4]diazepine-9(6H)-carboxamide]: the “TRP Activity (EC1.5, concentration of compound required to increase SIRT1 activity by 50% over control)” value is listed as “B (EC1.5 1-25 μM)” and the “TRP MAX RESP (percent maximum fold activation relative to control)” value is “A (Fold activation ≥150%)”.

For `O=C(Nc1ccnc(OC[C@@H](O)CO)n1)N1c2nc(-c3cccc(C(F)(F)F)c3)ncc2N2CC[C@H]1C2` [Example 17, (8S)—N-(2-((S)-2,3-dihydroxypropoxy)pyrimidin-4-yl)-2-(3-(trifluoromethyl)phenyl)-7,8-dihydro-5,8-methanopyrimido[4,5-b][1,4]diazepine-9(6H)-carboxamide], the “TRP Activity (EC1.5, concentration of compound required to increase SIRT1 activity by 50% over control)” value was “B (EC1.5 1-25 μM)” and the “TRP MAX RESP (percent maximum fold activation relative to control)” value is reported as “A (Fold activation ≥150%)”.

`O=C(Nc1cnc(OC[C@H](O)CO)cn1)N1c2nc(-c3cccc(C(F)(F)F)c3)ncc2N2CC[C@H]1C2` [Example 18, (8S)—N-(5-((R)-2,3-dihydroxypropoxy)pyrazin-2-yl)-2-(3-(trifluoromethyl)phenyl)-7,8-dihydro-5,8-methanopyrimido[4,5-b][1,4]diazepine-9(6H)-carboxamide]: the “TRP Activity (EC1.5, concentration of compound required to increase SIRT1 activity by 50% over control)” value was “B (EC1.5 1-25 μM)” and the “TRP MAX RESP (percent maximum fold activation relative to control)” value was “A (Fold activation ≥150%)”.

In the case of `O=C(Nc1ccnc(OC2CCOCC2)n1)N1c2nc(-c3cccc(C(F)(F)F)c3)ncc2N2CC[C@H]1C2` [Example 19, (8S)—N-(2-((tetrahydro-2H-pyran-4-yl)oxy)pyrimidin-4-yl)-2-(3-(trifluoromethyl)phenyl)-7,8-dihydro-5,8-methanopyrimido[4,5-b][1,4]diazepine-9(6H)-carboxamide], the “TRP Activity (EC1.5, concentration of compound required to increase SIRT1 activity by 50% over control)” value is listed as “B (EC1.5 1-25 μM)” and the “TRP MAX RESP (percent maximum fold activation relative to control)” value is “A (Fold activation ≥150%)”.

For the compound `O=C(NC1CCC1)N1c2nc(-c3cccc(C(F)(F)F)c3)ncc2N2CC[C@H]1C2` [Example 20, (8S)—N-cyclobutyl-2-(3-(trifluoromethyl)phenyl)-7,8-dihydro-5,8-methanopyrimido[4,5-b][1,4]diazepine-9(6H)-carboxamide], the “TRP Activity (EC1.5, concentration of compound required to increase SIRT1 activity by 50% over control)” value was “A (EC1.5<1 μM)” and the “TRP MAX RESP (percent maximum fold activation relative to control)” value is “A (Fold activation ≥150%)”.

Consider `CCNC(=O)N1c2nc(-c3cccc(C(F)(F)F)c3)ncc2N2CC[C@H]1C2.Cl` [Example 21, (8S)—N-ethyl-2-(3-(trifluoromethyl)phenyl)-7,8-dihydro-5,8-methano pyrimido[4,5-b][1,4]diazepine-9(6H)-carboxamide, Hydrochloride], for which the “TRP Activity (EC1.5, concentration of compound required to increase SIRT1 activity by 50% over control)” value is “A (EC1.5<1 μM)” and the “TRP MAX RESP (percent maximum fold activation relative to control)” value is recorded as “A (Fold activation ≥150%)”.

Turning to `O=C(Nc1cccc(OC[C@H](O)CO)n1)N1c2nc(-c3cccc(C(F)(F)F)c3)ncc2N2CC[C@H]1C2` [Example 22, (8S)—N-(6-((R)-2,3-dihydroxypropoxy)pyridin-2-yl)-2-(3-(trifluoromethyl)phenyl)-7,8-dihydro-5,8-methanopyrimido[4,5-b][1,4]diazepine-9(6H)-carboxamide], the “TRP Activity (EC1.5, concentration of compound required to increase SIRT1 activity by 50% over control)” value is “A (EC1.5<1 μM)” and the “TRP MAX RESP (percent maximum fold activation relative to control)” value was “A (Fold activation ≥150%)”.

As to `O=C(Nc1cnc(OC[C@@H](O)CO)cn1)N1c2nc(-c3cccc(C(F)(F)F)c3)ncc2N2CC[C@H]1C2` [Example 23, (8S)—N-(5-((S)-2,3-dihydroxypropoxy)pyrazin-2-yl)-2-(3-(trifluoromethyl)phenyl)-7,8-dihydro-5,8-methanopyrimido[4,5-b][1,4]diazepine-9(6H)-carboxamide], the “TRP Activity (EC1.5, concentration of compound required to increase SIRT1 activity by 50% over control)” value was “B (EC1.5 1-25 μM)” and the “TRP MAX RESP (percent maximum fold activation relative to control)” value is reported as “A (Fold activation ≥150%)”.

On to `O=C(Nc1cncc(OC[C@@H](O)CO)c1)N1c2nc(-c3cccc(C(F)(F)F)c3)ncc2N2CC[C@H]1C2` [Example 24, (8S)—N-(5-((S)-2,3-dihydroxypropoxy)pyridin-3-yl)-2-(3-(trifluoromethyl)phenyl)-7,8-dihydro-5,8-methanopyrimido[4,5-b][1,4]diazepine-9(6H)-carboxamide], for which the “TRP Activity (EC1.5, concentration of compound required to increase SIRT1 activity by 50% over control)” value is “B (EC1.5 1-25 μM)” and the “TRP MAX RESP (percent maximum fold activation relative to control)” value was “A (Fold activation ≥150%)”.

As for `O=C(Nc1ccnc(O[C@H]2CCOC2)n1)N1c2nc(-c3cccc(C(F)(F)F)c3)ncc2N2CC[C@H]1C2` [Example 25, (8S)—N-(2-(((S)-tetrahydrofuran-3-yl)oxy)pyrimidin-4-yl)-2-(3-(trifluoro-methyl)phenyl)-7,8-dihydro-5,8-methanopyrimido[4,5-b][1,4]diazepine-9(6H)-carboxamide], the “TRP Activity (EC1.5, concentration of compound required to increase SIRT1 activity by 50% over control)” value is given as “B (EC1.5 1-25 μM)” and the “TRP MAX RESP (percent maximum fold activation relative to control)” value was “A (Fold activation ≥150%)”.

`O=C(Nc1nccc(OC[C@H](O)CO)n1)N1c2nc(-c3cccc(C(F)(F)F)c3)ncc2N2CC[C@H]1C2` [Example 26, (8S)—N-(4-((R)-2,3-dihydroxypropoxy)pyrimidin-2-yl)-2-(3-(trifluoromethyl)phenyl)-7,8-dihydro-5,8-methanopyrimido[4,5-b][1,4]diazepine-9(6H)-carboxamide]: the “TRP Activity (EC1.5, concentration of compound required to increase SIRT1 activity by 50% over control)” value was “B (EC1.5 1-25 μM)” and the “TRP MAX RESP (percent maximum fold activation relative to control)” value is “A (Fold activation ≥150%)”.

Regarding `O=C(Nc1cc(F)cc(-c2cccnc2)c1)N1c2nc(-c3cccc(C(F)(F)F)c3)ncc2N2CC[C@H]1C2` [Example 27, (8S)—N-(3-fluoro-5-(pyridin-3-yl)phenyl)-2-(3-(trifluoromethyl)phenyl)-7,8-dihydro-5,8-methanopyrimido[4,5-b][1,4]diazepine-9(6H)-carboxamide], the “TRP Activity (EC1.5, concentration of compound required to increase SIRT1 activity by 50% over control)” value is given as “A (EC1.5<1 μM)” and the “TRP MAX RESP (percent maximum fold activation relative to control)” value is recorded as “A (Fold activation ≥150%)”.

In the case of `O=C(Nc1ccnc(OC[C@H](O)CO)n1)N1c2nc(-c3cccc(C(F)(F)F)c3)ncc2N2CC[C@H]1C2` [Example 28, (8S)—N-(2-((R)-2,3-dihydroxypropoxy)pyrimidin-4-yl)-2-(3-(trifluoromethyl)phenyl)-7,8-dihydro-5,8-methanopyrimido[4,5-b][1,4]diazepine-9(6H)-carboxamide], the “TRP Activity (EC1.5, concentration of compound required to increase SIRT1 activity by 50% over control)” value is “B (EC1.5 1-25 μM)” and the “TRP MAX RESP (percent maximum fold activation relative to control)” value is “A (Fold activation ≥150%)”.
